Data on 28 molecules can be found in ChEMBL document CHEMBL1136219, “Synthesis and SAR evaluation of oxadiazolopyrazines as selective Haemophilus influenzae antibacterial agents” (2003).

≈ marks a conversion by molar mass, not a printed value.

Common to all, as to assay type: functional
The test system of test [1] is JIYOYE. Kind of test: Cytotoxicity against human Jijoye B cell.
Test [2] concerns Candida albicans. In words: Minimum inhibitory concentration against Candida albicans.
Test [3] concerns Streptococcus pneumoniae. Kind of test: Minimum inhibitory concentration against Streptococcus pneumoniae.
The test system of test [4] is Haemophilus influenzae. In words: Minimum inhibitory concentration against Haemophilus influenzae.
Test [5] concerns Escherichia coli. Kind of test: Minimum inhibitory concentration against Escherichia coli.
For test [6], the system named is Staphylococcus aureus. In words: Minimum inhibitory concentration against Staphylococcus aureus.

Regarding `Oc1nc2nonc2nc1-c1ccccc1`, the Cytotoxicity in test [1] was greater than 100 µg/mL. In addition, the MIC in test [2] is greater than 128 µg/mL; in test [3], 128 µg/mL (≈ 598 µM); in test [4], 1 µg/mL (≈ 4.67 µM); in test [5], 128 µg/mL (≈ 598 µM); in test [6], 128 µg/mL (≈ 598 µM).
As for `O=[N+]([O-])c1ccc(-c2nc3nonc3nc2O)cc1`, in test [1], the Cytotoxicity is greater than 100 µg/mL. The MIC in test [2] was greater than 128 µg/mL; in test [3] it was 128 µg/mL (≈ 494 µM); in test [4] it was 8 µg/mL (≈ 30.9 µM); in test [5], greater than 128 µg/mL; in test [6], greater than 128 µg/mL.
The molecule `O=[N+]([O-])c1cccc(-c2nc3nonc3nc2O)c1` registered a Cytotoxicity in test [1] greater than 100 µg/mL. Further, the MIC is greater than 128 µg/mL in test [2]; 64 µg/mL (≈ 247 µM) in test [3]; 1 µg/mL (≈ 3.86 µM) in test [4]; greater than 128 µg/mL in test [5]; 32 µg/mL (≈ 123 µM) in test [6].
Turning to `Oc1nc2nonc2nc1-c1cccc(Br)c1`, the Cytotoxicity in test [1] is greater than 100 µg/mL. Further, the MIC in test [2] was greater than 128 µg/mL; in test [3], 64 µg/mL (≈ 218 µM); in test [4], 0.5 µg/mL (≈ 1.71 µM); in test [5], greater than 128 µg/mL; in test [6], 32 µg/mL (≈ 109 µM).
Consider `Oc1nc2nonc2nc1-c1ccc(Br)cc1`, for which the Cytotoxicity in test [1] is greater than 100 µg/mL. Moreover, the MIC in test [2] was greater than 128 µg/mL; in test [3], 64 µg/mL (≈ 218 µM); in test [4], 1 µg/mL (≈ 3.41 µM); in test [5] it was greater than 128 µg/mL; in test [6], 16 µg/mL (≈ 54.6 µM).
In turn, `Oc1nc2nonc2nc1-c1ccc(Cl)cc1` registered a Cytotoxicity in test [1] greater than 100 µg/mL. The MIC in test [2] is greater than 128 µg/mL; in test [3], 128 µg/mL (≈ 515 µM); in test [4] it was 1 µg/mL (≈ 4.02 µM); in test [5], greater than 128 µg/mL; in test [6], 16 µg/mL (≈ 64.4 µM).
In test [1], `Oc1nc2nonc2nc1-c1ccccc1Br` had a Cytotoxicity greater than 100 µg/mL. For the same molecule, the MIC was greater than 128 µg/mL in test [2]; 128 µg/mL (≈ 437 µM) in test [3]; 128 µg/mL (≈ 437 µM) in test [4]; greater than 128 µg/mL in test [5]; greater than 128 µg/mL in test [6].
As for `Oc1nc2nonc2nc1-c1ccc(C(F)(F)F)cc1`, the Cytotoxicity in test [1] is greater than 100 µg/mL. The MIC in test [2] was greater than 128 µg/mL; in test [3], 64 µg/mL (≈ 227 µM); in test [4], 4 µg/mL (≈ 14.2 µM); in test [5], greater than 128 µg/mL; in test [6], 32 µg/mL (≈ 113 µM).
In test [1], `COc1cc(-c2nc3nonc3nc2O)cc(OC)c1OC` registered a Cytotoxicity greater than 100 µg/mL. In addition, the MIC was greater than 128 µg/mL in test [2]; 128 µg/mL (≈ 421 µM) in test [3]; 128 µg/mL (≈ 421 µM) in test [4]; greater than 128 µg/mL in test [5]; greater than 128 µg/mL in test [6].
`COc1ccc(-c2nc3nonc3nc2O)cc1`: the Cytotoxicity in test [1] is greater than 100 µg/mL. Besides, the MIC in test [2] was greater than 128 µg/mL; in test [3] it was 128 µg/mL (≈ 524 µM); in test [4] it was 4 µg/mL (≈ 16.4 µM); in test [5], greater than 128 µg/mL; in test [6], 64 µg/mL (≈ 262 µM).
`CN(C)c1ccc(-c2nc3nonc3nc2O)cc1` registered a Cytotoxicity in test [1] greater than 100 µg/mL. Further, the MIC in test [2] is greater than 128 µg/mL; in test [3], 128 µg/mL (≈ 498 µM); in test [4], 4 µg/mL (≈ 15.5 µM); in test [5], greater than 128 µg/mL; in test [6], greater than 128 µg/mL.
The molecule `Oc1nc2nonc2nc1-c1cccc(F)c1` gave a Cytotoxicity in test [1] greater than 100 µg/mL. The MIC in test [2] was greater than 128 µg/mL; in test [3], 64 µg/mL (≈ 276 µM); in test [4], 1 µg/mL (≈ 4.31 µM); in test [5] it was 128 µg/mL (≈ 551 µM); in test [6] it was 64 µg/mL (≈ 276 µM).
The molecule `Oc1nc2nonc2nc1-c1ccc(Oc2ccccc2)cc1` gave a Cytotoxicity in test [1] of 60 µg/mL. For the same molecule, the MIC in test [2] was greater than 128 µg/mL; in test [3], 64 µg/mL (≈ 209 µM); in test [4], 8 µg/mL (≈ 26.1 µM); in test [5] it was greater than 128 µg/mL; in test [6] it was 4 µg/mL (≈ 13.1 µM).
Molecule `Oc1nc2nonc2nc1-c1ccsc1` returned a Cytotoxicity in test [1] of 100 µg/mL. The MIC in test [2] is greater than 128 µg/mL; in test [3], 128 µg/mL (≈ 581 µM); in test [4] it was 1 µg/mL (≈ 4.54 µM); in test [5], 128 µg/mL (≈ 581 µM); in test [6] it was 64 µg/mL (≈ 291 µM).
`Oc1nc2nonc2nc1-c1ccc(N2CCOCC2)cc1`: in test [1], the Cytotoxicity is greater than 100 µg/mL. Besides, the MIC is greater than 128 µg/mL in test [2]; 64 µg/mL (≈ 214 µM) in test [3]; 32 µg/mL (≈ 107 µM) in test [4]; greater than 128 µg/mL in test [5]; greater than 128 µg/mL in test [6].
The molecule `Oc1nc2nonc2nc1-c1ccccc1Cl` yielded a Cytotoxicity in test [1] greater than 100 µg/mL. Also, the MIC in test [2] is greater than 128 µg/mL; in test [3] it was 128 µg/mL (≈ 515 µM); in test [4], 128 µg/mL (≈ 515 µM); in test [5] it was greater than 128 µg/mL; in test [6], greater than 128 µg/mL.
Regarding `Oc1nc2nonc2nc1-c1cccc(Cl)c1`, the Cytotoxicity in test [1] is greater than 100 µg/mL. Also, the MIC was greater than 128 µg/mL in test [2]; 64 µg/mL (≈ 257 µM) in test [3]; 1 µg/mL (≈ 4.02 µM) in test [4]; greater than 128 µg/mL in test [5]; 128 µg/mL (≈ 515 µM) in test [6].
In the case of `Oc1nc2nonc2nc1-c1ccc[nH]1`, the Cytotoxicity in test [1] is greater than 100 µg/mL. Besides, the MIC in test [2] is 128 µg/mL (≈ 630 µM); in test [3] it was 128 µg/mL (≈ 630 µM); in test [4], 4 µg/mL (≈ 19.7 µM); in test [5] it was greater than 128 µg/mL; in test [6], 128 µg/mL (≈ 630 µM).
`Cn1cccc1-c1nc2nonc2nc1O`: the Cytotoxicity in test [1] is greater than 100 µg/mL. The MIC was greater than 128 µg/mL in test [2]; 64 µg/mL (≈ 295 µM) in test [3]; 8 µg/mL (≈ 36.8 µM) in test [4]; greater than 128 µg/mL in test [5]; greater than 128 µg/mL in test [6].
In the case of `Oc1nc2nonc2nc1-c1ccc(F)cc1`, the Cytotoxicity in test [1] was greater than 100 µg/mL. Moreover, the MIC is greater than 128 µg/mL in test [2]; 64 µg/mL (≈ 276 µM) in test [3]; 1 µg/mL (≈ 4.31 µM) in test [4]; greater than 128 µg/mL in test [5]; 64 µg/mL (≈ 276 µM) in test [6].
In turn, `Oc1nc2nonc2nc1-c1ccc2c(c1)OCO2` came in with a Cytotoxicity in test [1] greater than 100 µg/mL. Besides, the MIC is greater than 128 µg/mL in test [2]; 128 µg/mL (≈ 496 µM) in test [3]; 2 µg/mL (≈ 7.75 µM) in test [4]; greater than 128 µg/mL in test [5]; 64 µg/mL (≈ 248 µM) in test [6].
The molecule `Oc1nc2nonc2nc1-c1ccc(C2CCCCC2)cc1` displayed a Cytotoxicity in test [1] of 60 µg/mL. In addition, the MIC in test [2] is greater than 128 µg/mL; in test [3], 64 µg/mL (≈ 216 µM); in test [4], 16 µg/mL (≈ 54 µM); in test [5], greater than 128 µg/mL; in test [6], 4 µg/mL (≈ 13.5 µM).
For `COc1cccc(-c2nc3nonc3nc2O)c1`, the Cytotoxicity in test [1] was greater than 100 µg/mL. For the same molecule, the MIC in test [2] was greater than 128 µg/mL; in test [3], 64 µg/mL (≈ 262 µM); in test [4], 8 µg/mL (≈ 32.8 µM); in test [5], greater than 128 µg/mL; in test [6] it was 128 µg/mL (≈ 524 µM).
In turn, `Oc1nc2nonc2nc1-c1ccccc1F` came in with a Cytotoxicity in test [1] greater than 100 µg/mL. Further, the MIC in test [2] is greater than 128 µg/mL; in test [3] it was 64 µg/mL (≈ 276 µM); in test [4], 8 µg/mL (≈ 34.5 µM); in test [5] it was greater than 128 µg/mL; in test [6], greater than 128 µg/mL.
In the case of `Oc1nc2nonc2nc1-c1cccc(C(F)(F)F)c1`, the Cytotoxicity in test [1] was greater than 100 µg/mL. The MIC is greater than 128 µg/mL in test [2]; 128 µg/mL (≈ 454 µM) in test [3]; 2 µg/mL (≈ 7.09 µM) in test [4]; greater than 128 µg/mL in test [5]; 32 µg/mL (≈ 113 µM) in test [6].
Molecule `Oc1nc2nonc2nc1-c1cccs1` yielded a Cytotoxicity in test [1] greater than 100 µg/mL. The MIC in test [2] was greater than 128 µg/mL; in test [3], 64 µg/mL (≈ 291 µM); in test [4], 0.5 µg/mL (≈ 2.27 µM); in test [5], 128 µg/mL (≈ 581 µM); in test [6], 32 µg/mL (≈ 145 µM).
`Oc1nc2nonc2nc1-c1c[nH]c2ccccc12` returned a Cytotoxicity in test [1] greater than 100 µg/mL. For the same molecule, the MIC in test [2] was greater than 128 µg/mL; in test [3], 64 µg/mL (≈ 253 µM); in test [4] it was 8 µg/mL (≈ 31.6 µM); in test [5], greater than 128 µg/mL; in test [6], greater than 128 µg/mL.
The molecule `Oc1nc2nonc2nc1-c1ccc(N2CCCCC2)cc1` gave a Cytotoxicity in test [1] greater than 100 µg/mL. Also, the MIC in test [2] was greater than 128 µg/mL; in test [3], 128 µg/mL (≈ 431 µM); in test [4] it was 64 µg/mL (≈ 215 µM); in test [5], greater than 128 µg/mL; in test [6] it was 64 µg/mL (≈ 215 µM).
